Measured values published in patent publication US20210023523A1, “PARALLEL ORGANIC SYNTHESIS ON PATTERNED PAPER USING A SOLVENT-REPELLING MATERIAL” (The Governors of the University of Alberta, priority 2013, published 2021).

Assays:
MDA-MB-231-GFP cells = assay: Short-term adhesion of MDA-MB-231-GFP cells to peptides synthesized on Teflon-patterned paper arrays; format: cell-based; conditions: for binding of cells to peptide-modified paper: confocal microscopy, FIG. 10b, 3 hours of incubation
Protocol: When immobilized on paper, 5 out of the 8 peptides synthesized supported adhesion of MDA-MB-231 breast carcinoma at levels similar to or higher than the positive control GRGDS. The other three peptides supported greater adhesion than the scrambled peptide, GGRDS.
The images represent short term adhesion of cells after 3 hours of incubation on the array.
In FIG. 14(a), a fluorescent gel scanner was used to validate adhesion of MDA-MB-231-GFP cells to phage-derived peptides on peptide-arrays. […] FIG. 14(c) illustrates digitization of the number of cells per zone from fluorescent gel scanner images of the 32 peptides. The (+) and (−) lines represent the intensity level of the positive and negative controls.
FIG. 18 illustrates a typical cell-binding experiment on a half array (40 peptides identified from two panning experiments, and 8 controls). […] FIG. 18c consists of the zones of interest for each peptide extracted from FIG. 18a, and organized by peptides. The average intensity of fluorescence for each peptide zone is then converted into a number of cells per zone through a calibration curve previously established for these cells (FIG. 18d). FIG. 18e is the resulting plot with standard deviation over the four replicates.

[1] = system: MCF-7 breast cancer cells; assay: Culture of MCF-7 cells on peptide-modified array with or without paclitaxel (Taxol); format: cell-based; conditions: cells cultured on a peptide that induced morphological changes; Taxol for the last 4 days of seven; without drug: spread cells forming aggregate
Excerpt: FIG. 19 illustrates changes such as drug-resistance and morphology observed when a peptide-modified array supported culture of MCF-7 breast cancer cells for seven days and was exposed to the anti-cancer drug paclitaxel (Taxol) for the last 4 days. FIG. 19a presents confocal images of calcein-stained cells after culture in media without taxol for four peptides (including two controls) and FIG. 19b correspond to cells cultured in media with Taxol.

Row | Compound | binding of cells to peptide-modified paper (MDA-MB-231-GFP cells) | adhesion of MDA-MB-231 breast carcinoma cells to peptide immobilized on paper (MDA-MB-231-GFP cells; fluorescent gel scanner (GFP fluorescence), 3 hours of incubation on the array, known bioactive peptides, FIG. 10a) | cell morphology [1]
1 | GGRDS (peptide identified by phage display panning on MDA-MB-231 cells) [scrambled peptide, negative control] | no binding | minimal binding | 
2 | GRGDS (peptide identified by phage display panning on MDA-MB-231 cells) | binding |  | 
3 | CC(=O)O[C@H]1C(=O)[C@@]2(C)[C@H]([C@H](OC(=O)c3ccccc3)[C@]3(O)C[C@H](OC(=O)[C@H](O)[C@@H](NC(=O)c4ccccc4)c4ccccc4)C(C)=C1C3(C)C)[C@]1(OC(C)=O)CO[C@@H]1C[C@@H]2O [Taxol, paclitaxel] |  |  | isolated, rounded cells
